Experimental data reported in the supplement of paper PMC10307832.

Assays:
Assay in all cases: relative viability (nuclei count vs DMSO), 5 days (fraction); higher = more cells survive
AZD1208 = compound: N[C@@H]1CCCN(c2c(/C=C3\SC(=O)NC3=O)cccc2-c2ccccc2)C1 [AZD1208]
In short: (§1)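 Hoechst staining, done together with fixation and permeabilisation, marked nuclei for 4× imaging and MetaXpress counting. This followed 5 days without medium change after lung cancer cell lines, kept overnight at 37 °C in 1536-well plates, were pinned with five library-drug doses (not always all listed) spaced by √10 on vehicle-anchored plates. Viability is the ratio of treated-well to vehicle-well nuclei, expressed as a median across plates. Plates passed only at control CV below 25% with at least one doubling.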

XMD14-99 = compound: CN1CCN(CC1)C2=CC(=C(C=C2)NC3=NC(=C(S3)C(=O)C4=C(C=CC=C4Cl)Cl)N)OC [XMD14-99]
In short: as §1

XMD14-99 + Decitabine = compound: CN1CCN(CC1)C2=CC(=C(C=C2)NC3=NC(=C(S3)C(=O)C4=C(C=CC=C4Cl)Cl)N)OC [XMD14-99] + Nc1ncn([C@H]2C[C@H](O)[C@@H](CO)O2)c(=O)n1 [Decitabine] (partner 2 µM)
In short: (§2)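 Medians of duplicate plates are given as relative viability. That measure is the nuclei count in treated wells divided by the count in vehicle wells. Counts were taken on 4× images of lung cancer cell lines in 1536-well plates, 5 days after pin-tool dosing the day after seeding with one drug alone or a fixed anchor-drug dose plus five library-drug doses (not always all listed) in √10 steps.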

XMD14-99 + Vorinostat = compound: CN1CCN(CC1)C2=CC(=C(C=C2)NC3=NC(=C(S3)C(=O)C4=C(C=CC=C4Cl)Cl)N)OC [XMD14-99] + O=C(CCCCCCC(=O)Nc1ccccc1)NO [Vorinostat] (partner 1 µM)
In short: as §2

In the case of UMC-11, the relative viability (AZD1208; 0.08 µM) is reported as 0.85, the relative viability (AZD1208; 0.253 µM) is reported as 0.851 and the relative viability (AZD1208; 0.8 µM) is reported as 0.713. For the same cell line, the relative viability (AZD1208; 2.53 µM) was 0.67, the relative viability (AZD1208; 8 µM) was 0.511 and the relative viability (XMD14-99; 0.08 µM) was 0.968. It also gave a relative viability (XMD14-99; 0.8 µM) of 1.02, a relative viability (XMD14-99; 2.53 µM) of 1 and a relative viability (XMD14-99; 8 µM) of 0.83. The relative viability (XMD14-99 + Decitabine; first compound 0.08 µM) was 0.573, the relative viability (XMD14-99 + Decitabine; first compound 0.8 µM) was 0.667 and the relative viability (XMD14-99 + Decitabine; first compound 2.53 µM) was 0.626. It also gave a relative viability (XMD14-99 + Decitabine; first compound 8 µM) of 0.589, a relative viability (XMD14-99 + Vorinostat; first compound 0.08 µM) of 0.422 and a relative viability (XMD14-99 + Vorinostat; first compound 0.8 µM) of 0.352. For the same cell line, the relative viability (XMD14-99 + Vorinostat; first compound 2.53 µM) was 0.416 and the relative viability (XMD14-99 + Vorinostat; first compound 8 µM) was 0.346.
